Data as given in US20070179113A1, “GM-CSF gene therapy for Crohn's disease using an improved regulated expression system” (Schering Aktiengesellachaft, priority 2005, published 2007).

Assays:
EAE in SJL mice = assay: Murine active EAE model, mIFN-β protein and pBRES mIFN-β plasmid with MFP pellet; type: in vivo; conditions: 25 days
Description: FIG. 39A illustrates the effect of treatment of mice with induced EAE neuroinflammation with mIFN-β protein by SC injection every other day for 25 days. SJL mice were immunized on day 1 with proteolipid peptide (PLP) amino acids 139-151/pertussis according to the protocol described in Material and Methods. Groups of mice (n=10 per group) were injected SC on day 1 with mIFN-β protein, 100,000 units (500 ng) or 300,000 units (1500 ng), or vehicle. Animals were scored for EAE disease progression and the average clinical scores are provided with the standard error of the mean score (SEM).
FIG. 39B illustrates the delay in the onset of disease and decrease in the severity of disease following administration of pBRES mIFN-β as compared to the null vector control group. SJL mice were immunized on day I with PLP 139-151/pertussis according to the protocol described. Groups of mice (n=10 per group) were injected IM on day-7 with 200 ug of either pBRES null plasmid DNA or pBRES mIFN-β plasmid DNA with electroporation. One group of mice were treated daily with Prednisolone by IP injection and served as the positive control for the study. Plasmid treated mice were administered one mifepristone (MFP) containing slow release pellets by SC injection on day-3. Animals were scored for EAE disease progression and the average clinical scores are provided with the standard error of the mean score (SEM). […]

acute EAE in SJL mice = assay: Mouse acute EAE model, gene-based delivery of mIFN-β; type: in vivo; conditions: 100,000 Units s.c. every other day
[1] = tested on: Mx1 RNA in murine L929 cells; assay: Mx1 RNA induction in vitro in L929 cells (TaqMan RT-PCR); type: cell-based
Description: FIG. 5 illustrates Mx1 RNA induction in vitro (in L929 cells) by mIFN-β. L929 cells were seeded at 5×10^5 cells in 6 well plates and stimulated with increasing amounts of purified recombinant mIFN-β protein. Four hours after treatment the cells were harvested, RNA isolated, and Mx1 RNA quantitated by TaqMan analysis. Mx1 RNA expression is plotted as the fold increase relative to GAPDH RNA.
A quantitative PCR/RT-PCR assay was developed to quantitate the levels of Mx1 mRNA in murine PBMC's. Specifically, peripheral blood mononuclear cells (PBMCs) were isolated from mice treated with either mIFN-β protein or following gene-based delivery of the mIFN-β gene. Blood samples obtained from treated mice were centrifuged on a ficoll cushion for 25 minutes at 2,000 rpm. Purified PBMCs were pelleted and RNA for the Mx1 assay was purified using the “RNAeasy” mini extraction kit from Qiagen. The RNA was stored in H2O at −80° C. Mx1 RT-PCR was performed using TaqMan® chemistry and analysis was done on the Applied Biosystems (ABI) PRISM® 7700 Sequence Detection instrument. For reverse transcription of the RNA and amplification of cDNA, the “One-step TaqMan® RNA” kit from ABI was used. […] The samples were analyzed with an Mx1-specific probe/primer combination. Mx1 expression was normalized to GAPDH expression measured in parallel using a standard assay from ABI. […]

[2] = Luciferase reporter gene assay for activity of purified mIFN-β protein; type: cell-based
Description: Specifically, the gene encoding mIFN-β was cloned into a pCEP4 expression vector (Invitrogen). The expression plasmid encoding mIFN-β was transiently transfected into 293E cells (Edge Biosystems) using X-tremeGene Ro-1539 Transfection Reagent (Roche). Murine IFN-β protein was purified from the medium by ion-exchange chromatography and by hydrophobic-interaction chromatography. The product was sialyzed and concentrated against dilution buffer (50 mM sodium acetate, pH 5.5, 150 mM sodium chloride, and 5% polypropylene glycol) and sterile filtered. Aliquots of the purified protein were stored at −80° C. The activity of the purified protein was assessed using a luciferase reporter gene assay (Hardy et al. (2001) Blood 97:473-482), using a commercial mIFN-β reference standard from Access Biomedical (San Diego, Calif.). The specific activity of the purified protein was 2×10^8 units/mg.
The positive control used for this study was Prednisolone, 2.5 mg/kg, (Sigma, St. Louis) administered by IP injection twice daily, beginning on day 1, until the end of the study. For mIFN-β protein delivery, the mice were given SC injections of purified recombinant mIFN-β protein every other day, starting on day 1 of the study (100,000 or 300,000 IU per animal per injection in 100 ul vehicle buffer). […]

IP-10 = IP-10 plasma level after bolus mIFN-β protein (ELISA); type: in vivo, C57BL/6 mice
Description: C57BL/6 mice were administered 15, 150, or 500 ng of purified recombinant mIFN-β protein (specific activity=2.0×10^8 units/mg) by either i.v. (via tail vein) or i.m. injection (n=3 mice per group). The mice were bled at 2, 4, 6, 12, 24, and 48 hours post-injection, and the plasma levels of IP-10 and JE were measured by ELISA (R&D Systems).

mIFN-β: purified recombinant murine interferon-beta protein expressed in 293E cells
severity of disease (clinical scores) compared to vehicle (EAE in SJL mice; 100,000 units SC every other day): significantly reduced the severity of the disease
severity of disease (clinical scores) compared to vehicle (EAE in SJL mice; 300,000 units SC every other day): significantly reduced the severity of the disease
clinical scores compared to vehicle control (acute EAE in SJL mice): significantly decreased clinical scores
increase in the level of Mx1 RNA [1]: 100 fold
EC50 of Mx1 RNA induction ([1]; 4 hours treatment): approximately 50 pg/ml
specific activity of the purified protein [2]: 2×10^8 units/mg
time by which plasma IP-10 dropped to background (IP-10; each of three doses): ≤ 24 h
increase of IP-10 levels (IP-10; high dose delivered i.v.): 3000 fold
time of strong induction of IP-10 after administration (IP-10; i.v. or i.m.): 2 h
